According to PMC6545003, “Cytotoxic and cell cycle arrest properties of two steroidal alkaloids isolated from Holarrhena floribunda (G. Don) T. Durand & Schinz leaves” (BMC Complementary and Alternative Medicine, 2019):
Where two headings read alike, the source gives them in different places.

How the values were obtained:
[1] = system: HT-29 cells; test: MTT reduction assay; type: cell-based, human; conditions: for Selectivity index: HT-29 versus non-cancerous KMST-6
Protocol: (§3) Viable cells were seeded at a density of 5 x10^4 cells/ml (100 μl/well) in 96-well plates and incubated in a humidified atmosphere of 5% CO2 and 95% air at 37°C for 24 h to form a cell monolayer. After 24 h, the cell culture medium was aspirated and 100 μl fresh medium containing varying concentrations of test compounds in log10 doses were added to the cells and the 96-well plates incubated for a further 24 h [16, 17].
(§4) After the 24 h treatments, 20 μl of 5 mg/ml MTT (prepared in PBS) was added to each well and the 96-well plates incubated for 3 h at 37°C in a 5% CO2 atmosphere. The supernatant was aspirated and 150 μl of isopropanol added to each well after which the plate was gently shaken for 15 min to solubilize the formazan crystals and the absorbance was measured at 560 nm using a Glomax Multi Detection System (Promega, USA). The percentage inhibition of cell proliferation was calculated using the formula below and IC50 values computed by non-linear regression analysis of log dose-response sigmoidal curves using GraphPad Prism version 6.05 for Windows (GraphPad Software, La Jolla California USA, www.graphpad.com). %Inhibition of Proliferation=100‐TestOD/UntreatedODx100%

[2] = system: HeLa cells; test: MTT reduction assay; type: cell-based, human; conditions: for Selectivity index: HeLa versus non-cancerous KMST-6; for IC50: HeLa
Protocol: as §3, §4

[3] = system: MCF-7 cells; test: MTT reduction assay; type: cell-based, human; conditions: for Selectivity index: MCF-7 versus non-cancerous KMST-6
Protocol: as §3, §4

[4] = system: KMST-6 non-cancerous fibroblast cells; test: MTT reduction assay; type: cell-based, human
Protocol: as §3, §4

[5] = system: HT-29 cells; test: Cell cycle analysis, PI flow cytometry; type: cell-based, human; conditions: HT-29, IC50 concentration, 12 and 24 h
Protocol: (§1) Cells were seeded at a density of 2 × 10^5 cells/well in 6-well plates and incubated for 24 h at 37 °C in a CO2 incubator to form a monolayer. The cells were treated for 12 and 24 h with the isolated compounds at concentrations equivalent to the IC50 concentrations (as determined by the MTT reduction assay). After treatment, the cells were detached with trypsin, washed in PBS and the cell pellet was resuspended in 1 ml of 1% paraformaldehyde and placed on ice for 30 min. Ethanol (70%, v/v) was slowly added to the cells while the sample was vortexed to reduce cell clumping. The cells were stored at − 20 °C for 48 h, after which the cells were recovered by centrifugation at 4000 rpm for 10 min. The cell pellets were washed twice in PBS and then resuspended in 1 ml PBS containing 100 μg/ml RNase and 40 μg/ml propidium iodide. Cell cycle phase distribution was determined using a FACS Calibur Flow Cytometer (BD Biosciences Franklin Lakes, NJ, USA). The DNA content of 50,000 events was determined by ModFit software (Verity Software House, Topsham, ME), which provided histograms to evaluate the cell cycle distribution.

[6] = system: MCF-7 cells; test: Cell cycle analysis, PI flow cytometry; type: cell-based, human; conditions: MCF-7, IC50 concentration
Protocol: as §1

[7] = system: HT-29 cells; test: BrdU incorporation assay (chemiluminescent ELISA); type: cell-based, human; conditions: HT-29, IC50 concentration
Protocol: (§2) Cells were seeded at a density of 5 × 10^4 cells/well in black-walled 96-well microtiter plates and incubated for 24 h at 37 °C in a CO2 incubator to form a monolayer. The cells were treated for 12, 24 and 48 h with the isolated compounds at concentrations equivalent to the IC50 concentrations (as determined by the MTT reduction assay). Cell proliferation was determined using the ELISA-BrdU (5-bromo-2′-deoxyuridine) chemiluminescence assay kit (Roche, Germany), according to the manufacturer’s instruction, and expressed as the percentage DNA synthesis relative to the untreated control.

[8] = system: HeLa cells; test: BrdU incorporation assay (chemiluminescent ELISA); type: cell-based, human; conditions: IC50 concentration
Protocol: as §2

[9] = system: MCF-7 cells; test: BrdU incorporation assay (chemiluminescent ELISA); type: cell-based, human; conditions: MCF-7, IC50 concentration
Protocol: as §2

[10] = parameters: method as in doi:10.1135/cccc20041506; conditions: at a neuro-active concentration; cited from earlier work
[11] = system: HeLa cells; test: Cell cycle analysis, PI flow cytometry; type: cell-based, human; conditions: IC50 concentration, 24 h
Protocol: as §1

[12] = Homo sapiens, HT-29, MTT, 24 h treatment, read-out: IC50
[13] = Homo sapiens, MTT, 24 h treatment, read-out: IC50
[14] = Homo sapiens, MCF7, MCF-7, MTT, 24 h treatment, read-out: IC50
[15] = Homo sapiens, Fibroblast, KMST-6, MTT, 24 h treatment, read-out: IC50

Row | Compound | Selectivity index [1] | Selectivity index [2] | Selectivity index [3] | Cell population in G2/M phase [5] | Cell population in G2/M-phase ([6]; 12 h) | Cell population in G2/M-phase ([6]; 24 h) | Change in DNA synthesis between 12 and 24 h [7] | IC50 [1, 12] | IC50 [2, 13] | IC50 [3, 14] | IC50 [4, 15] | further results
1 | N.N.[Cl][Pt][Cl] [Cisplatin] | 0.87 | 2.11 | 0.58 |  |  |  |  |  |  |  |  | IC50 ([1]; HT-29, MTT, 24 h treatment, read-out: IC50): 7.07 µM; IC50 ([2]; MTT, 24 h treatment, read-out: IC50): 2.91 µM; IC50 ([3]; MCF-7, MTT, 24 h treatment, read-out: IC50): 10.6 µM; IC50 ([4]; KMST-6, MTT, 24 h treatment, read-out: IC50): 6.14 µM
2 | CC(=O)[C@H]1CC[C@H]2[C@@H]3CC[C@H]4C[C@H](N)CC[C@]4(C)[C@H]3CC[C@]12C [Compound 2, funtumine] | 3.31 |  | 1.85 | significant increase | significant increase | significant increase | significant reduction |  |  |  |  | Selectivity index ([1]; listed as C2): 3.82; IC50 ([1]; Homo sapiens, HT-29, 24 h): 22.4 µM; IC50 ([2]; Homo sapiens, 24 h): 46.2 µM; IC50 ([3]; Homo sapiens, MCF7, 24 h): 52.7 µM; IC50 ([4]; Homo sapiens, Fibroblast, 24 h): 85.5 µM; Change in DNA synthesis between 24 and 48 h [7]: significant reduction; Change in DNA synthesis between 12 and 24 h [8]: significant reductions; Change in DNA synthesis between 24 and 48 h [9]: significantly (P < 0.05) reduced; Cytotoxicity [10]: no cytotoxicity
3 | COc1cccc2c1C(=O)c1c(O)c3c(c(O)c1C2=O)C[C@@](O)(C(=O)CO)C[C@@H]3O[C@H]1C[C@H](N)[C@H](O)[C@H](C)O1 [Dox, Doxorubicin] | 0.27 | 1.31 | 0.57 |  |  |  |  | 17.4 µM | 3.57 µM | 8.2 µM | 4.68 µM | 
4 | CC(=O)[C@H]1CC[C@H]2[C@@H]3CC=C4C[C@H](N)CC[C@]4(C)[C@H]3CC[C@]12C [Compound 1, holamine] | 3.82 | 2.00 |  | significant increase | significant increase | not significant | significant reduction | 31.1 µM | 51.4 µM | 42.8 µM | 103 µM | Selectivity index ([1]; listed as C1): 3.31; Cell population in G2/M-phase [11]: significant decrease; Change in DNA synthesis between 24 and 48 h [8]: significant reduction; Change in DNA synthesis between 12 and 24 h [9]: significant reduction
